Each structure is given as a SMILES string.

With `CCCS(=O)c1sccc1[N+](=O)[O-]` (stereo not drawn), the logP was found to be 2.52. In the case of `CCCS(=O)c1sc(C#N)c(Cl)c1C#N` (stereo not drawn) it was 2.95; in that of `CCS(=O)c1nc(C)c([N+](=O)[O-])c(C)c1C#N` (stereo not drawn), 2.44; in that of `CCS(=O)c1sc(C(C)=O)c(N)c1C#N` (stereo not drawn), 1.82. As for `CCS(=O)c1ccc(C(C)=O)s1` (stereo not drawn), the figure is 1.31; as for `CCS(=O)c1sc(C#N)c(C)c1C(C)=O` (stereo not drawn), 2.22; as for `CCS(=O)c1nc(C)cc(C)c1C#N` (stereo not drawn), 1.77. Consider `CC(=O)c1sc(S(C)=O)c(-c2ccc(Cl)cc2)c1C` (stereo not drawn), for which the lipophilicity (logP) is 3.82. As for `CS(=O)c1sc(C#N)cc1C#N` (stereo not drawn), the figure is 1.31; as for `CS(=O)c1ccc([N+](=O)[O-])s1` (stereo not drawn), 1.4. In the case of `CC(=O)c1sc(S(C)=O)c(-c2ccccc2)c1C` (stereo not drawn) it was 3.26; in that of `CS(=O)c1sc(C#N)c(Cl)c1C#N` (stereo not drawn), 2.15; in that of `CS(=O)c1sccc1Br` (stereo not drawn), 1.71. `Cc1c(C#N)sc(S(C)=O)c1-c1ccccc1` (stereo not drawn) yielded a logP of 3.36.

Take `CCCS(=O)c1sc(C#N)cc1C#N` (stereo not drawn): the log partition coefficient (logP) was 2.18.

Turning to `CCOC(=O)c1cc(C#N)c(S(C)=O)s1` (stereo not drawn), the log partition coefficient (logP) was found to be 2.27.

In the case of `CS(=O)c1nc(-c2ccccc2)cc(C(F)(F)F)n1` (stereo not drawn), the logP was 3.01.

In turn, `Cc1sc(S(C)=O)c([N+](=O)[O-])c1C` (stereo not drawn) displayed a logP of 2.65. As for `CCS(=O)c1ccc2ccccc2n1` (stereo not drawn), the figure is 2.43; as for `CS(=O)c1scc(-c2ccccc2)c1[N+](=O)[O-]` (stereo not drawn), 3.2. As for `COc1c(C#N)sc(S(C)=O)c1C#N` (stereo not drawn), the figure is 2.02. In the case of `CCS(=O)c1sc(C#N)cc1C#N` (stereo not drawn) it was 1.78; in that of `CS(=O)c1ccsc1` (stereo not drawn), 0.91; in that of `Cc1c(C#N)sc(S(C)=O)c1-c1ccc(Cl)cc1` (stereo not drawn), 3.8. On to `CS(=O)c1sccc1[N+](=O)[O-]` (stereo not drawn), for which the log partition coefficient (logP) amounted to 1.69. As for `CC(C)CS(=O)c1sccc1[N+](=O)[O-]` (stereo not drawn), the figure is 2.93.

With `CCS(=O)c1ccc(Cl)cc1S(C)(=O)=O` (stereo not drawn), the lipophilicity (logP) is 2.31. In the case of `CCS(=O)c1sc(C(C)=O)c(Cl)c1C#N` (stereo not drawn) it was 2.64; in that of `CCCCS(=O)c1sc(C#N)cc1C#N` (stereo not drawn), 2.64. As for `CS(=O)c1sccc1C#N` (stereo not drawn), the figure is 0.96; as for `CCS(=O)c1sccc1[N+](=O)[O-]` (stereo not drawn), 2.06. The molecule `CCS(=O)c1sc(C#N)c(OC)c1C#N` (stereo not drawn) registered a log partition coefficient (logP) of 2.35. In the case of `CCC(=O)c1ccc(S(=O)CC)c([N+](=O)[O-])c1` (stereo not drawn) it was 2.8. `CS(=O)c1cccs1` (stereo not drawn) displayed a logP of 0.91. In the case of `CCS(=O)c1ccc([N+](=O)[O-])cn1` (stereo not drawn) it was 1.74; in that of `CCCCS(=O)c1sc(C#N)c(Cl)c1C#N` (stereo not drawn), 3.44; in that of `CCS(=O)c1c(Cl)cncc1Cl` (stereo not drawn), 2.1. In the case of `CC(=O)c1sc(S(C)=O)c(C#N)c1-c1ccc(Cl)cc1` (stereo not drawn), the logP was determined as 3.31. In the case of `CCS(=O)c1sc(C(C)=O)c(C)c1C#N` (stereo not drawn) it was 2.22. In turn, `CCS(=O)c1cnc2ccccc2n1` (stereo not drawn) came in with a lipophilicity (logP) of 2.29. Turning to `CCS(=O)c1ccc([N+](=O)[O-])cc1C#N` (stereo not drawn), the logP came to 2.15. Consider `Cc1csc(S(C)=O)c1[N+](=O)[O-]` (stereo not drawn), for which the lipophilicity (logP) was 2.19. With `CCCCCC1(c2ccc(S(=O)CC)c([N+](=O)[O-])c2)OCCO1` (stereo not drawn), the log partition coefficient (logP) is 5.11.

`CCS(=O)c1sc(C(C)=O)c(C)c1[N+](=O)[O-]` (stereo not drawn) showed a log partition coefficient (logP) of 2.81. In the case of `CCS(=O)c1ccc(C(=O)c2ccccc2)cc1[N+](=O)[O-]` (stereo not drawn) it was 3.82; in that of `CCCCCC(=O)c1ccc(S(=O)CC)c([N+](=O)[O-])c1` (stereo not drawn), 4.36; in that of `CCS(=O)c1sc(Cl)cc1C#N` (stereo not drawn), 2.31. As for `CC(=O)c1sc(S(C)=O)c(-c2ccc(Cl)cc2)c1N` (stereo not drawn), the figure is 3.18.

The record behind these values is the OPERA property sets (Mansouri et al. 2018).
